Columns and labels:
[1] = test system: Jurkat cell line; assay: Cytotoxicity of compounds of Formula I, Example 3 (CellTiter-Glo); format: cell-based, Human; settings: Homo sapiens, 72 h, 3 days incubation, CellTiter-Glo, read-out: EC50
Method: (§1) Compounds were tested on Jurkat and HCC1954 cell lines to assess their cytotoxicity. Compounds were titrated 1:3 starting at various concentrations (30 nM to 1000 nM). Control cytotoxin HTI-286 (see, e.g., U.S. Pat. No. 7,579,323) was also titrated 1:3 across starting with a 30 nM concentration. Plates were incubated for 3 days. Cell viability was quantified using 30 μL/well of 1× CellTiter-Glo reagent.
(§2) Each cell line was grown in its respective growth medium until seeding day. Cells were removed from their culture vessels and the resulting cell suspension was counted using the ViCell. Cells were then diluted in their growth medium to 25000/mL such that 100 μL/well=2500 cells/well. Each cell line was seeded in the inner 60 wells of 96-well black walled TC plates, outer wells filled with water. HCC1954 were seeded a day prior to assay set up. Cytotoxins were diluted as described below a 5× dose-response of each compound was prepared using RPMI+10% FBS in a deep-well 96-well plate. This “master” dilution plate was used for each cell line. 25 μL of the 5× dose responses was spiked into each cell line in triplicate. The plates were returned to the incubator and were incubated for 3 nights. After the 3 nights, cell viability was quantified using 30 μL/well of 1× CellTiter-glo reagent. After at least 10 minutes of incubation, the luminescence was measured using the SpectraMax (500 ms integration).

[2] = test system: HCC1954 cell line; assay: as above; format: cell-based; settings: Homo sapiens, 72 h, 3 days incubation
Method: as §1, §2

[3] = test system: Human Pancreatic cell line BxPC-3; assay: Cellular cytotoxicity of compounds of Formula I, Example 3.1; format: cell-based; settings: five nights, CellTiter-Glo
Method: (§3) Compounds were tested on one or more of Human T-cell leukemia cell line Jurkat (ATCC: TIB-152); Human breast cancer cell lines HCC1954 (ATCC: CRL-2338) and JIMT-1 (DSMZ: ACC 589); Human Pancreatic cell line BxPC-3 (ATCC: CRL.1687), Human ovarian adenocarcinoma cell line SK-OV-3 (ATCC: HTB-77) and Human gastric carcinoma cell line NCI-N87 (ATCC: CRL. 5822); to assess their cytotoxicity.
(§4) Briefly, cells were obtained from commercial sources and cultured as described in the product sheet provided. Cells were removed from their culture vessels and the resulting cell suspension was counted using a ViCell (Beckman Coulter), then seeded at 25,000 cells/mL (2,500 cells/well) in Costar 3904 black walled, flat bottomed 96-well plates (cells were seeded in the inner 60 wells of 96-well TC plates, and outer edge wells filled with water). Adherent cell lines were incubated for one night at 37° C./5% CO2 atmosphere to allow the cells to attach to the microtiter plate surface, while suspension (Jurkat) cells were plated immediately before use. Cytotoxins were dissolved and serially diluted in dimethyl sulfoxide and then the solutions were added to complete growth medium at five-times the desired maximum final concentration. The cytotoxins were then titrated in growth medium, normally 1:3, over eight steps. A control with no test article present (growth medium alone) was included on each microtiter plate in sextuplicate. The prepared toxin titrations were added (25 μL/well) in triplicate to each cell line assayed. The cells and titrations were incubated at 37° C./5% CO2 for three nights (Jurkat) and five nights (all other cell lines). After the incubation, cell viability was measured using CellTiter-Glo® by adding 30 μL of prepared CellTiter-Glo® reagent to each assay well. The mixtures were incubated for at least twenty minutes in the dark prior to measuring emitted luminescence using a microplate luminometer (500 ms integration time). The collected relative luminescence units (RLU) were converted to % cytotoxicity using the growth medium alone control mentioned above (% Cytotoxicity=1-[well RLU/average medium alone control RLU]×100%).

[4] = test system: Human T-cell leukemia cell line Jurkat; assay: as above; format: cell-based; settings: Homo sapiens; Jurkat; three nights; CellTiter-Glo; read-out: EC50 (nM) Jurkat
Method: as §3, §4

[5] = test system: Human breast cancer cell line HCC1954; assay: as above; format: cell-based; settings: five nights, CellTiter-Glo, read-out: EC50 (nM) HCC-1954
Method: as §3, §4

[6] = test system: Human breast cancer cell line JIMT-1; assay: as above; format: cell-based; settings: five nights, CellTiter-Glo
Method: as §3, §4

[7] = test system: Human gastric carcinoma cell line NCI-N87; assay: as above; format: cell-based; settings: five nights, CellTiter-Glo
Method: as §3, §4

[8] = test system: Human ovarian adenocarcinoma cell line SK-OV-3; assay: as above; format: cell-based; settings: five nights, CellTiter-Glo, read-out: EC50 (nM) SKOV-3
Method: as §3, §4

[9] = test system: Jurkat cells; assay: Cell cycle arrest assay; format: cell-based, Human; settings: 50 nM, 24 h, propidium iodide
Method: Jurkat cells (ATCC), cultured in RMPI-1640 media supplemented with 10% FBS, were obtained in logarithmic growth. 1 million cells/ml were seeded into a 12-well tissue-culture treated plate in a 950 μL, volume. Cells were treated with Compound 5 in 50 μL of growth media such that the final concentration of Compound 5 was 50 nM, control cells were given 50 μL of growth media alone. Cells were incubated for 24 h at 37° C., 5% CO2 in a humidified incubator. Following incubation, cells were thoroughly resuspended and transferred to 5 mL FACS tubes, and stored on ice. Two washes were performed by spinning cells down in a swinging-bucket centrifuge at 450×g for 4 min, resuspending in 1 mL ice-cold PBS. Cells were fixed through the addition of 3 mL ice-cold 100% ethanol in a dropwise fashion under vortex, and immediately stored at 4° C. for 1 h. During the 1 h incubation, the following staining solution was prepared in ice-cold PBS: 10 μg/ml propidium iodide, 10 U/ml RNAse 1f, and 0.05% Triton X-100. Following the 1 h fixation incubation, ethanol was removed by spinning cells as described above, and washing twice in 1 mL ice-cold PBS. Cells were resuspended in 500 μL of the above-mentioned staining solution, and incubated at room temperature for 1 h. […] Histograms were generated using FCS Express, plotting # of events against fluorescence in FL-3.

CC[C@H](C)[C@@H]([C@@H](CC(=O)N1CCC[C@H]1[C@H](OC)[C@@H](C)C(=O)NS(=O)(=O)c1ccc(N)cc1)OC)N(C)C(=O)[C@@H](NC(=O)[C@H](C(C)C)N(C)C)C(C)C [Compound 5, (S)-N-((3R,4S,5S)-1-((S)-2-((1R,2R)-3-(4-Aminophenylsulfonamido)-1-methoxy-2-methyl-3-oxopropyl)pyrrolidin-1-yl)-3-methoxy-5-methyl-1-oxoheptan-4-yl)-2-((S)-2-(dimethylamino)-3-methylbutanamido)-N,3-dimethylbutanamide]
EC50 [1]: 16.8 nM | EC50 [2]: 8.9 nM | EC50 [3]: 18.2 nM | EC50 [4]: 13.6 nM | EC50 [5]: 8.9 nM | EC50 [6]: 9.3 nM | EC50 [7]: 12 nM | EC50 [8]: 23.7 nM | Cell cycle phase (DNA content histograms) [9]: pronounced shift towards G2/M phase

Source: patent US10450378B2, “Cytotoxic and anti-mitotic compounds, and methods of using the same” (priority 2014, dated 2019)
